Data from ChEMBL document CHEMBL4229524, “Design, synthesis and preclinical evaluation of 5-methyl-N4-aryl-furo[2,3-d]pyrimidines as single agents with combination chemotherapy potential” (Bioorg Med Chem Lett, 2018).
Each block holds one compound with its values, some of them ahead of it. Active and inactive are the calls of the source. The rule behind the calls is not given here.

Columns and labels:
[1] = target: T1, Vascular endothelial growth factor receptor 2 (Homo sapiens, UniProt P35968); assay type: cell-based
Chorioallantoic membrane = assay: Antiangiogenic activity in Leghorn chicken embryo chorioallantoic membrane after 40 hrs by microscopic analysis; assay type: functional, tissue-based; details: Gallus gallus
A-431 = assay: Cytotoxicity against human A431 cells over-expressing EGFR; assay type: functional, cell-based
[2] = target: Epidermal growth factor receptor (Homo sapiens, UniProt P00533); assay type: cell-based
[3] = target: T2, Platelet-derived growth factor receptor beta (Homo sapiens, UniProt P09619); assay: Inhibition of PDGF-BB-induced PDGFRbeta activation in human SH-SY5Y cells pretreated for 60 mins followed by PDGF-BB addition and measured after 10 mins by ELISA; assay type: cell-based
HeLa = assay: Antiproliferative activity against human HeLa cells after 72 hrs by sulforhodamine B assay; assay type: functional, cell-based
A10 = assay: Induction of microtubule depolymerization in rat A10 cells after 18 hrs by indirect immunofluorescence method; assay type: functional, cell-based; details: A10, 18 h
SK-OV-3 = assay: Antiproliferative activity against human SKOV3 cells after 72 hrs by sulforhodamine B assay; assay type: functional, cell-based; details: SK-OV-3, 72 h
[4] = Resistance index, ratio of IC50 for human HeLa cells to IC50 for human wild-type Hela-beta3 cells; assay type: functional
MDA-MB-435 [5] = assay: Antiproliferative activity against human MDA-MB-435 cells after 72 hrs by sulforhodamine B assay; assay type: functional, cell-based; details: MDA-MB-435, 72 h
[6] = Resistance index, ratio of IC50 for human SKOV3-MDR1-M6/6 cells to IC50 for human SKOV3 cells; assay type: functional
[7] = Antiproliferative activity against human wild-type Hela-beta3 cells after 72 hrs by sulforhodamine B assay; assay type: functional
[8] = Antiproliferative activity against human SKOV3-MDR1-M6/6 cells after 72 hrs by sulforhodamine B assay; assay type: functional; details: SKOV3-MDR1-M6/6, 72 h
Homo sapiens [9] = assay: Antitumor activity against human LOX cells xenografted in ip dosed mouse assessed as reduction in cell viability administered daily for 4 days starting from 3 to 4 days post implantation measured post last dose by MTT based in-vivo hollow fiber assay; assay type: functional, organism-based
SW-620 [10] = assay: Antitumor activity against human SW620 cells xenografted in sc dosed mouse assessed as reduction in cell viability administered daily for 4 days starting from 3 to 4 days post implantation measured post last dose by MTT based in-vivo hollow fiber assay; assay type: functional, organism-based
MDA-MB-435 [11] = assay: Antitumor activity against human MDA-MB-435 cells xenografted in sc dosed mouse assessed as reduction in cell viability administered daily for 4 days starting from 3 to 4 days post implantation measured post last dose by MTT based in-vivo hollow fiber assay; assay type: functional, organism-based
MDA-MB-231 [12] = assay: Antitumor activity against human MDA-MB-231 cells xenografted in ip dosed mouse assessed as reduction in cell viability administered daily for 4 days starting from 3 to 4 days post implantation measured post last dose by MTT based in-vivo hollow fiber assay; assay type: functional, organism-based
Mus musculus [13] = assay: Toxicity in athymic nude mouse assessed as death at 100 mg/kg, po administered as single dose measured after 4 days; assay type: organism-based; details: in vivo, 96 h
NCI-H522 [14] = assay: Antitumor activity against human NCI-H522 cells xenografted in sc dosed mouse assessed as reduction in cell viability administered daily for 4 days starting from 3 to 4 days post implantation measured post last dose by MTT based in-vivo hollow fiber assay; assay type: functional, organism-based
Mus musculus [15] = assay: Toxicity in athymic nude mouse assessed as death at 250 to 500 mg/kg, po administered as single dose measured after 1 day; assay type: organism-based; details: in vivo, 24 h
Mus musculus [16] = assay: Toxicity in athymic nude mouse xenografted with human A498 cells assessed as body weight at 25 mg/kg, ip qd for 19 days measured post last dose relative to control; assay type: organism-based; details: in vivo, 456 h
Mus musculus [17] = assay: Toxicity in athymic nude mouse xenografted with human A498 cells assessed as body weight at 25 mg/kg, ip q2d for 19 days measured post last dose relative to control; assay type: organism-based; details: in vivo, 456 h
NCI-H23 [18] = assay: Antitumor activity against human NCI-H23 cells xenografted in ip dosed mouse assessed as reduction in cell viability administered daily for 4 days starting from 3 to 4 days post implantation measured post last dose by MTT based in-vivo hollow fiber assay; assay type: functional, organism-based
NCI-H522 [19] = assay: Antitumor activity against human NCI-H522 cells xenografted in ip dosed mouse assessed as reduction in cell viability administered daily for 4 days starting from 3 to 4 days post implantation measured post last dose by MTT based in-vivo hollow fiber assay; assay type: functional, organism-based
Mus musculus [20] = assay: Toxicity in athymic nude mouse assessed as survival at 12.5 to 50 mg/kg, po administered as single dose; assay type: organism-based; details: in vivo
OVCAR-3 [21] = assay: Antitumor activity against human OVCAR3 cells xenografted in sc dosed mouse assessed as reduction in cell viability administered daily for 4 days starting from 3 to 4 days post implantation measured post last dose by MTT based in-vivo hollow fiber assay; assay type: functional, organism-based
MDA-MB-435 [22] = assay: Antitumor activity against human MDA-MB-435 cells xenografted in ip dosed mouse assessed as reduction in cell viability administered daily for 4 days starting from 3 to 4 days post implantation measured post last dose by MTT based in-vivo hollow fiber assay; assay type: functional, organism-based
COLO 205 [23] = assay: Antitumor activity against human COLO205 cells xenografted in ip dosed mouse assessed as reduction in cell viability administered daily for 4 days starting from 3 to 4 days post implantation measured post last dose by MTT based in-vivo hollow fiber assay; assay type: functional, organism-based
MDA-MB-231 [24] = assay: Antitumor activity against human MDA-MB-231 cells xenografted in sc dosed mouse assessed as reduction in cell viability administered daily for 4 days starting from 3 to 4 days post implantation measured post last dose by MTT based in-vivo hollow fiber assay; assay type: functional, organism-based
SW-620 [25] = assay: Antitumor activity against human SW620 cells xenografted in ip dosed mouse assessed as reduction in cell viability administered daily for 4 days starting from 3 to 4 days post implantation measured post last dose by MTT based in-vivo hollow fiber assay; assay type: functional, organism-based
SF-295 [26] = assay: Antitumor activity against human SF295 cells xenografted in sc dosed mouse assessed as reduction in cell viability administered daily for 4 days starting from 3 to 4 days post implantation measured post last dose by MTT based in-vivo hollow fiber assay; assay type: functional, organism-based
COLO 205 [27] = assay: Antitumor activity against human COLO205 cells xenografted in athymic nude mouse; assay type: functional, cell-based
[28] = target: T2, Platelet-derived growth factor receptor beta; assay: Potency index, ratio of sunitinib IC50 to test compound IC50 for PDGF-BB-induced PDGFRbeta activation in human SH-SY5Y cells; assay type: cell-based
OVCAR-3 [29] = assay: Antitumor activity against human OVCAR3 cells xenografted in ip dosed mouse assessed as reduction in cell viability administered daily for 4 days starting from 3 to 4 days post implantation measured post last dose by MTT based in-vivo hollow fiber assay; assay type: functional, organism-based
A498 [30] = assay: Antitumor activity against human A498 cells xenografted in athymic nude mouse assessed as reduction in tumor volume at 25 mg/kg, ip qd for 19 days measured post last dose up to 40 days; assay type: functional; design: scale not given: the % may be the effect or the level left
U-251 [31] = assay: Antitumor activity against human U251 cells xenografted in ip dosed mouse assessed as reduction in cell viability administered daily for 4 days starting from 3 to 4 days post implantation measured post last dose by MTT based in-vivo hollow fiber assay; assay type: functional, organism-based
COLO 205 [32] = assay: Antitumor activity against human COLO205 cells xenografted in sc dosed mouse assessed as reduction in cell viability administered daily for 4 days starting from 3 to 4 days post implantation measured post last dose by MTT based in-vivo hollow fiber assay; assay type: functional, organism-based
SF-295 [33] = assay: Antitumor activity against human SF295 cells xenografted in ip dosed mouse assessed as reduction in cell viability administered daily for 4 days starting from 3 to 4 days post implantation measured post last dose by MTT based in-vivo hollow fiber assay; assay type: functional, organism-based
[34] = target: T1, Vascular endothelial growth factor receptor 2; assay: Potency index, ratio of sunitinib IC50 to test compound IC50 for VEGF-induced VEGFR2 activation in human U251 cells; assay type: cell-based
NCI-H522 [35] = assay: Antitumor activity against human NCI-H522 cells xenografted in athymic nude mouse; assay type: functional, cell-based
NCI-H23 [36] = assay: Antitumor activity against human NCI-H23 cells xenografted in sc dosed mouse assessed as reduction in cell viability administered daily for 4 days starting from 3 to 4 days post implantation measured post last dose by MTT based in-vivo hollow fiber assay; assay type: functional, organism-based
OVCAR-5 [37] = assay: Antitumor activity against human OVCAR5 cells xenografted in sc dosed mouse assessed as reduction in cell viability administered daily for 4 days starting from 3 to 4 days post implantation measured post last dose by MTT based in-vivo hollow fiber assay; assay type: functional, organism-based
UACC-62 [38] = assay: Antitumor activity against human UACC62 cells xenografted in sc dosed mouse assessed as reduction in cell viability administered daily for 4 days starting from 3 to 4 days post implantation measured post last dose by MTT based in-vivo hollow fiber assay; assay type: functional, organism-based
Mus musculus [39] = assay: Toxicity in athymic nude mouse xenografted with human A498 cells assessed as body weight at 25 mg/kg, ip q3d for 19 days measured post last dose relative to control; assay type: organism-based; details: in vivo, 456 h
A498 [40] = assay: Antitumor activity against human A498 cells xenografted in athymic nude mouse assessed as reduction in tumor volume at 25 mg/kg, ip q3d for 19 days measured post last dose up to 40 days; assay type: functional; design: scale not given: the % may be the effect or the level left
A498 [41] = assay: Antitumor activity against human A498 cells xenografted in athymic nude mouse assessed as reduction in tumor volume at 25 mg/kg, ip q2d for 19 days measured post last dose up to 40 days; assay type: functional; design: scale not given: the % may be the effect or the level left
U-251 [42] = assay: Antitumor activity against human U251 cells xenografted in sc dosed mouse assessed as reduction in cell viability administered daily for 4 days starting from 3 to 4 days post implantation measured post last dose by MTT based in-vivo hollow fiber assay; assay type: functional, organism-based
OVCAR-5 [43] = assay: Antitumor activity against human OVCAR5 cells xenografted in ip dosed mouse assessed as reduction in cell viability administered daily for 4 days starting from 3 to 4 days post implantation measured post last dose by MTT based in-vivo hollow fiber assay; assay type: functional, organism-based
UACC-62 [44] = assay: Antitumor activity against human UACC62 cells xenografted in ip dosed mouse assessed as reduction in cell viability administered daily for 4 days starting from 3 to 4 days post implantation measured post last dose by MTT based in-vivo hollow fiber assay; assay type: functional, organism-based
Homo sapiens [45] = assay: Antitumor activity against human LOX cells xenografted in sc dosed mouse assessed as reduction in cell viability administered daily for 4 days starting from 3 to 4 days post implantation measured post last dose by MTT based in-vivo hollow fiber assay; assay type: functional, organism-based

Chain of Epidermal growth factor receptor (P00533 whole entry): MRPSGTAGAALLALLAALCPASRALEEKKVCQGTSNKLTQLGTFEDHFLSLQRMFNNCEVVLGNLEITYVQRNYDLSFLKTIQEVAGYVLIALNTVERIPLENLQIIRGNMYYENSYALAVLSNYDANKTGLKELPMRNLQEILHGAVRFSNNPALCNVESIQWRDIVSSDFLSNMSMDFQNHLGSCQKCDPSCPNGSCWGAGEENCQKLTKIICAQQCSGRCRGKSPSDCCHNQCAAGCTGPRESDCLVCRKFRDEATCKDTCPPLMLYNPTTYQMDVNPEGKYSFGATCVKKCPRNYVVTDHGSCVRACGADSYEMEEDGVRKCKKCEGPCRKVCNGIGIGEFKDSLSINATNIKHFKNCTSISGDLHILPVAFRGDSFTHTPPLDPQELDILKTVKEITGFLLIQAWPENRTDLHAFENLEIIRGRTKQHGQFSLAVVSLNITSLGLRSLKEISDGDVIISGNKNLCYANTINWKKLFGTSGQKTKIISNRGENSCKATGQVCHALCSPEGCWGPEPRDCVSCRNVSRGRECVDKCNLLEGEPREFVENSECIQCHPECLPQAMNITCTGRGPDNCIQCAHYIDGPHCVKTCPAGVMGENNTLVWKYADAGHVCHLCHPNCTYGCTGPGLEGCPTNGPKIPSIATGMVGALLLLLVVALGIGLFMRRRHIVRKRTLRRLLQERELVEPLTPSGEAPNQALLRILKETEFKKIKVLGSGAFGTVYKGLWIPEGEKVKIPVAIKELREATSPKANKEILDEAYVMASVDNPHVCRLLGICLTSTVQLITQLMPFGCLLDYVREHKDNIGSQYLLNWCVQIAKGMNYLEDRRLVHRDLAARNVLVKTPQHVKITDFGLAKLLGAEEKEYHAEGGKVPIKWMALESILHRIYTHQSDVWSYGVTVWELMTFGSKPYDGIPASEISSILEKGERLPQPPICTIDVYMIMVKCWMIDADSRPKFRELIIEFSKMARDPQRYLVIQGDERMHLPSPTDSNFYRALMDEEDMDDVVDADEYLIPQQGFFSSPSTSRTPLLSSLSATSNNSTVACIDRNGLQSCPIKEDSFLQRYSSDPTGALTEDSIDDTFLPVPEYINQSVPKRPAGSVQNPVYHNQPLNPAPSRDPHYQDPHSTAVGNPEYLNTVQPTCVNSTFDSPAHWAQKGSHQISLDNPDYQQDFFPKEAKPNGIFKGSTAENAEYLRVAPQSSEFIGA
T1 sequence (P35968 whole entry): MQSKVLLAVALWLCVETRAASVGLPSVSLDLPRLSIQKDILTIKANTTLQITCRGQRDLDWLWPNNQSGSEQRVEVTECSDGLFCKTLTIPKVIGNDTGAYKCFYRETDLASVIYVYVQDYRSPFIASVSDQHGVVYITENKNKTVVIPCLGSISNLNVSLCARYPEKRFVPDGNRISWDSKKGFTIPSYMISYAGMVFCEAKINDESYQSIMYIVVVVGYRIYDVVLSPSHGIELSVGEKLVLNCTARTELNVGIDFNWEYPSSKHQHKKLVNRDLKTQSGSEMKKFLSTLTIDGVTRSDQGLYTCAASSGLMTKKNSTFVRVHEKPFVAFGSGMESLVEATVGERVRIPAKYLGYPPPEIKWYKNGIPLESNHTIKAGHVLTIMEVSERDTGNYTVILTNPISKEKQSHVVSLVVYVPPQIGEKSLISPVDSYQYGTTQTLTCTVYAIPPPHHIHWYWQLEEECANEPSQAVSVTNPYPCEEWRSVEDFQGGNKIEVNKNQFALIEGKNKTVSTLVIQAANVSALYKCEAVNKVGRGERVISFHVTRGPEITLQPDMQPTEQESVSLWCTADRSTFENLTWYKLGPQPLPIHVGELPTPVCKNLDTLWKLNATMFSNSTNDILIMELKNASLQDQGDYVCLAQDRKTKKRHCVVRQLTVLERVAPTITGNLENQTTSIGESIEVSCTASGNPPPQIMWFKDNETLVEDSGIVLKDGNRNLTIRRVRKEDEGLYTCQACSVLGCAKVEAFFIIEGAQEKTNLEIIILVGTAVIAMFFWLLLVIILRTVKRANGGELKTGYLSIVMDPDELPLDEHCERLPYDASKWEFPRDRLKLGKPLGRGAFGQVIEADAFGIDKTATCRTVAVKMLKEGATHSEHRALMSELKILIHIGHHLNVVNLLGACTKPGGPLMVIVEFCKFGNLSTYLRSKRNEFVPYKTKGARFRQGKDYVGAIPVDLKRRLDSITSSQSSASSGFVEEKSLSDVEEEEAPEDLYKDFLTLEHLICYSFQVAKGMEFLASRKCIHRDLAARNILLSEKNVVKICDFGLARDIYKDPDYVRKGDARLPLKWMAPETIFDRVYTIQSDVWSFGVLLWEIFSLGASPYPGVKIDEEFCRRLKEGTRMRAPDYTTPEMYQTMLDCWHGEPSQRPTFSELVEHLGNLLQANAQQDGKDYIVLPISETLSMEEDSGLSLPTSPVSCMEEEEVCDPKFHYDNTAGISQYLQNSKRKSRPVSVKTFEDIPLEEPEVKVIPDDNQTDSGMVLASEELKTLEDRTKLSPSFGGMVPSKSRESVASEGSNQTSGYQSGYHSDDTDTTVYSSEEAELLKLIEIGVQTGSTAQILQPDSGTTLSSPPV
T2 sequence (P09619 whole entry): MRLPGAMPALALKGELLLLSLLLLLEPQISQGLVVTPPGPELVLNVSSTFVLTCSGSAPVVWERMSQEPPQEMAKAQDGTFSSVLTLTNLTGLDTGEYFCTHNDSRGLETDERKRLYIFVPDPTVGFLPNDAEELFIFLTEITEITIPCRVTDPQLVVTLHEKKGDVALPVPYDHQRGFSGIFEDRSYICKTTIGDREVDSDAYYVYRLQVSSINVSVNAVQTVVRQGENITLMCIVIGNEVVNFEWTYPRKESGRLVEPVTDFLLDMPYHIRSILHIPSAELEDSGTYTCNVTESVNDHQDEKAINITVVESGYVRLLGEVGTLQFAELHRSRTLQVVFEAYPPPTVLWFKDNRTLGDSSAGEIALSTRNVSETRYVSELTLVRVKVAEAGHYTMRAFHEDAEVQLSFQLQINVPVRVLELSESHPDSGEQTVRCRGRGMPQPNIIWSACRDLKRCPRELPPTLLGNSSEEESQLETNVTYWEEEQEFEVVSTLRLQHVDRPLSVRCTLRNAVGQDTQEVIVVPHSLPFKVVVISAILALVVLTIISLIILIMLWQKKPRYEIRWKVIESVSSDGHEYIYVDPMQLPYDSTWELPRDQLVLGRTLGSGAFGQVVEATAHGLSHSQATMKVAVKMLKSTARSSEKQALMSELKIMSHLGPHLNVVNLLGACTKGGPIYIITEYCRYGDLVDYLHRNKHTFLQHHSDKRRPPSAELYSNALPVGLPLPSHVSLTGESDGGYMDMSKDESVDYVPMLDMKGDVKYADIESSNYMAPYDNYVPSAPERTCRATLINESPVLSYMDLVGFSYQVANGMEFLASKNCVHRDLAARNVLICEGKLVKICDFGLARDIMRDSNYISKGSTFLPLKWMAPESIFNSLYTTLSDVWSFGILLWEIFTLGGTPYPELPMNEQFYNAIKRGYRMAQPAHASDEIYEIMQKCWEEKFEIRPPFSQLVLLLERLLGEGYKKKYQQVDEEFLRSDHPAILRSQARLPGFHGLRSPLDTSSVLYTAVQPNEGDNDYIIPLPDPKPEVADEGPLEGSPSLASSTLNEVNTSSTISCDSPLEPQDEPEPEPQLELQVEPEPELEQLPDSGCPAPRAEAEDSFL

IC50 [1]: 0.0381 µM | IC50 [2]: 0.283 µM | IC50 [3]: 0.0573 µM
SMILES: COc1ccc(Nc2ncnc3occ(C)c23)cc1
IC50 (Chorioallantoic membrane): 0.445 µM | IC50 (A-431): 0.292 µM

IC50 [1]: 0.0127 µM | IC50 (HeLa): 0.074 µM | EC50 (A10): 0.24 µM | IC50 (SK-OV-3): 0.095 µM | IC50 [2]: 0.0064 µM | IC50 [3]: 0.0578 µM | IC50 (MDA-MB-435 [5]): 0.074 µM
SMILES: CNc1ccc(N(C)c2ncnc3occ(C)c23)cc1
Ratio IC50 [4]: 1.2 | IC50 (Chorioallantoic membrane): 0.707 µM | IC50 (A-431): 0.0029 µM | Ratio IC50 [6]: 1.1 | IC50 [7]: 0.086 µM | IC50 [8]: 0.101 µM

IC50 [1]: > 0.2 µM | EC50 (A10): > 10 µM | IC50 [2]: > 0.2 µM | IC50 [3]: > 0.2 µM
SMILES: CNc1ccc(Nc2ncnc3occ(C)c23)cc1

SMILES: COc1ccc(N(C)c2ncnc3occ(C)c23)cc1
Activity (Homo sapiens [9]): Active | Activity (SW-620 [10]): Active | IC50 [1]: 0.0093 µM | Activity (MDA-MB-435 [11]): Active | Activity (MDA-MB-231 [12]): Active | Activity (Mus musculus [13]): Toxic | Activity (NCI-H522 [14]): Active | Activity (Mus musculus [15]): Toxic | T/C (Mus musculus [16]): 47% | T/C (Mus musculus [17]): 38% | IC50 (Chorioallantoic membrane): 0.08 µM | Activity (NCI-H23 [18]): Active | Activity (NCI-H522 [19]): Active | MSD (Mus musculus [20]): 15 days | Activity (OVCAR-3 [21]): Active | Activity (MDA-MB-435 [22]): Active | Activity (COLO 205 [23]): Active | Activity (MDA-MB-231 [24]): Active | Activity (SW-620 [25]): Active | Activity (SF-295 [26]): Active | Activity (COLO 205 [27]): inactive | Ratio IC50 [28]: 7 | Activity (OVCAR-3 [29]): Active | Activity (A498 [30]): 25 - 50% | Activity (U-251 [31]): Active | Activity (COLO 205 [32]): Active | Activity (SF-295 [33]): Active | IC50 (A-431): 0.0051 µM | Ratio IC50 [34]: 2 | Activity (NCI-H522 [35]): inactive | Activity (NCI-H23 [36]): Active | IC50 [2]: 0.0155 µM | IC50 [3]: 0.0123 µM | Activity (OVCAR-5 [37]): Active | Activity (UACC-62 [38]): Active | T/C (Mus musculus [39]): 71% | Activity (A498 [40]): 25 - 50% | Activity (A498 [41]): 25 - 50% | Activity (U-251 [42]): Active | Activity (OVCAR-5 [43]): Active | Activity (UACC-62 [44]): Active | Activity (Homo sapiens [45]): Active
